Measurements: paper PMC4835042 (Bioorganic & medicinal chemistry letters, 2015)

How the values were obtained:
human mGlu5 [1] = target: T1, human mGlu5 (Homo sapiens, UniProt P41594); experiment: Calcium mobilization assay, mGlu5 PAM activity; type: cell-based; conditions: for mGlu5 activity in words: 4y vs 4k, 21a-c pyrazole unit modifications; for decrease in mGlu5 potency versus comparator analog: 4n vs 4k, 4x vs 4c, 4z vs unsubstituted -CH2-O- linker, 20 vs piperazinone core
human mGlu5 [2] = target: T1, human mGlu5; conditions: cited from earlier work
human mGlu3 [3] = target: T2, human mGlu3 (Homo sapiens, UniProt Q14832)
T2 sequence (Q14832 23-879): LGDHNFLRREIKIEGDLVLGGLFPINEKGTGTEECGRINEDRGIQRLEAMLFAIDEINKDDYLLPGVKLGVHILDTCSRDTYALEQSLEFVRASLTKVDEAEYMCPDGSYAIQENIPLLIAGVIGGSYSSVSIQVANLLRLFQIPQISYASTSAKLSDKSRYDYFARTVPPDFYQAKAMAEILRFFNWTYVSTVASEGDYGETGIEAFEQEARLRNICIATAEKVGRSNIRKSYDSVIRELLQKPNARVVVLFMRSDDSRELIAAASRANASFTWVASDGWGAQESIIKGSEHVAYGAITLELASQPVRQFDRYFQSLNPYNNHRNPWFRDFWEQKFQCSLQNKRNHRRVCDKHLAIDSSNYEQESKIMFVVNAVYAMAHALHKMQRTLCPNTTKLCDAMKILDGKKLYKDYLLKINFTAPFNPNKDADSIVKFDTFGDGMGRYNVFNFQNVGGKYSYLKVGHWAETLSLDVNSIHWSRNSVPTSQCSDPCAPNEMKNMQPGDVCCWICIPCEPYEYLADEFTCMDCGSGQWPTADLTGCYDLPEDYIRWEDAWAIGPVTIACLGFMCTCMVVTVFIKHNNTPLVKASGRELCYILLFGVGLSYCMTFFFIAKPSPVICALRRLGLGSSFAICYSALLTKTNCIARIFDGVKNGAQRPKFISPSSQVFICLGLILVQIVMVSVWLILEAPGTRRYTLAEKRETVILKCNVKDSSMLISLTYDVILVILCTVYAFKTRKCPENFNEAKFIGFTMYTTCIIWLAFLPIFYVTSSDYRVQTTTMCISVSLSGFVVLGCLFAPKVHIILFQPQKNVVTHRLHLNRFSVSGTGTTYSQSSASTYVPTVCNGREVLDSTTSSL

[4] = Terminal unbound brain concentration in the AHL study; conditions: rat, in vivo, po, 10 mg/kg
[5] = Predicted rat hepatic clearance from microsomal CLint; type: in vitro ADME; conditions: predicted hepatic clearance based on microsomal CLint data
Ca channels = experiment: Cardiovascular ion channel interaction, Ca channel; conditions: read-out: Ca channel IC50
[6] = High content cytotoxicity assay
Toxicology rat MTD study = type: in vivo
Na channels = experiment: Cardiovascular ion channel interaction, Na channel; conditions: read-out: Na channel IC50
human mGlu3 [7] = target: T2, human mGlu3; experiment: cell-based

T1 sequence (P41594 21-1212): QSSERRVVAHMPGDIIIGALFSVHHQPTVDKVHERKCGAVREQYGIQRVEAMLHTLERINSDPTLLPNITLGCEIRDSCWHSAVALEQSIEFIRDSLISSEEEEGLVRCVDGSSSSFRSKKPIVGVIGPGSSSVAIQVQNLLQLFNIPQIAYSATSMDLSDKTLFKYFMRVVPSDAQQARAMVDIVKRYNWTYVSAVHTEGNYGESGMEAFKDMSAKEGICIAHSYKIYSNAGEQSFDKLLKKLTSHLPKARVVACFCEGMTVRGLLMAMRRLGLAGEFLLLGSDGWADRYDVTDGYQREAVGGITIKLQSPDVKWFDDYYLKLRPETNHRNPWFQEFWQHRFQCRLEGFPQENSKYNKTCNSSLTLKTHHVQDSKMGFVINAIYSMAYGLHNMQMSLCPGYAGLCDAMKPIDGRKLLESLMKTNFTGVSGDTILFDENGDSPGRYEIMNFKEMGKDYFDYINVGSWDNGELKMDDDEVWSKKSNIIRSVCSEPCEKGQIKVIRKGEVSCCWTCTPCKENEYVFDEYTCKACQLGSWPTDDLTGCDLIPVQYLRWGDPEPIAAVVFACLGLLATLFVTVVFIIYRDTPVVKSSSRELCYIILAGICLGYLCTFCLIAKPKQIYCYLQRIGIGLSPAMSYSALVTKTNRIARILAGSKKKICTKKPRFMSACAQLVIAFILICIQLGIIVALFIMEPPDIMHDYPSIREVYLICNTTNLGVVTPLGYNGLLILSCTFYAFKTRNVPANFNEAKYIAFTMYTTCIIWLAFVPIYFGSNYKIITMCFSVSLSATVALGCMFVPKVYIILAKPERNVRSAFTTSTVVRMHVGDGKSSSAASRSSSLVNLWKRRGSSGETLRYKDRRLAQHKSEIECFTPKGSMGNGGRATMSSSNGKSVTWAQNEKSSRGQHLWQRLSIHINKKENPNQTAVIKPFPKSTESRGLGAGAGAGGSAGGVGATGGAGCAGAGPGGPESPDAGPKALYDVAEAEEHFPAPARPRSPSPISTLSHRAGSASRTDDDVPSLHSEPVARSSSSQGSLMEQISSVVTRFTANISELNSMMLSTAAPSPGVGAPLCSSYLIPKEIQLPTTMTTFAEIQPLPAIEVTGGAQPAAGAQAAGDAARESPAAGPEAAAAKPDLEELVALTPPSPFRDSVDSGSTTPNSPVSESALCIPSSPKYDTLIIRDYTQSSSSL

## Cc1c(COc2ccccc2)nn2c1C(=O)N(c1ccc(F)cc1)CC2 [21b]
Human mGlu5 [1]
  mGlu5 activity in words: remarkable loss of mGlu5 potency

## O=C(c1ccc(F)cc1)N1CCc2oc(COc3ccccc3)nc2C1 [compound 1]
Human mGlu5 [2]
  glutamate CRC fold-shift (FS): 11

## O=C1c2cc(COc3ccccc3)nn2CCN1c1ccccn1 [4h]
Human mGlu5 [1]
  increased mGlu5 potency over the 3- and 4- pyridyl isomers (4i,j): ~ 3 fold

## O=C1c2cc(OCc3ccccc3)nn2CCN1c1cc(F)ccn1 [4y]
Human mGlu5 [1]
  mGlu5 activity in words: complete loss of activity

## Cc1ccc(N2CCn3nc(COc4ccccc4)cc3C2=O)cc1 [4f]
Human mGlu3 [3]
  extent of mGlu3 antagonism: full antagonism

## O=C1c2cc(COc3ccccc3)nn2CCN1c1ccc(F)cc1 [4c]
Human mGlu5 [1]; HEK293 cells expressing human mGlu5, average of three or more determinations
  pEC50 (±SEM): 7.19 ± 0.02
Human mGlu3 [3]
  extent of mGlu3 antagonism: full antagonism

## O=C1c2cc(COc3ccccn3)nn2CCN1c1ccc(F)cc1 [4s]
Human mGlu3 [3]
  extent of mGlu3 antagonism: full antagonism

## O=C1c2cc(OCc3ccccc3)nn2CCN1c1ccc(F)cc1 [4x]
[4]
  concentration at 90 min: 376 nM
[5]
  Rat CLhep: 34.6 mL/min/kg
Human mGlu5 [1]
  decrease in mGlu5 potency versus comparator analog: ~ 2.5 fold

## CC(Oc1ccccc1)c1cc2n(n1)CCN(c1ccc(F)cc1)C2=O (stereo not drawn) [4z]
Human mGlu5 [1]
  decrease in mGlu5 potency versus comparator analog: > 100 fold

## O=C1c2nc(COc3ccccc3)nn2CCN1c1ccc(F)cc1 [21a]
Human mGlu5 [1]
  mGlu5 activity in words: remarkable loss of mGlu5 potency

## O=C1c2cc(COc3ccccc3)nn2CCN1c1ccc(F)cn1 [4k]
[4]
  concentration at 90 min: 313 nM
Ca channels
  IC50: > 10 µM
[5]
  Rat CLhep: 34.5 mL/min/kg
AMES
  AMES result: benign profile
[6]
  high content cytotoxicity: > 100 µM
Toxicology rat MTD study; 600 mg/kg p.o., rat MTD study
  death of animals at the highest dose: 2/6
Toxicology rat MTD study; rat MTD study 25, 75, 150, 300 and 600 mg/kg p.o.
  signs of CNS-related side-effects (compulsive behavior, pedaling movements of the forepaws, tremors): starting at the lowest tested dose
Na channels
  IC50: > 10 µM

## O=C1c2cc(COc3ccccc3)nn2CCCN1c1ccc(F)cc1 [compound 20]
Human mGlu5 [1]
  decrease in mGlu5 potency versus comparator analog: ~ 3 fold

## O=C1c2cc(COc3ccccc3)nn2CCN1c1ncc(F)cn1 [4n]
Human mGlu5 [1]
  decrease in mGlu5 potency versus comparator analog: ~ 6 fold

## O=C1c2cc(COc3ccc(F)cc3)nn2CCN1c1ccc(F)cc1 [4q]
Human mGlu3 [3]
  extent of mGlu3 antagonism: full antagonism

## Cc1ccc(N2CCn3nc(COc4ccccc4)cc3C2=O)nc1 [4l]
Human mGlu3 [3]
  functional selectivity for mGlu5 versus mGlu3 antagonist activity: > 50 fold
Human mGlu3 [7]
  EC50: > 10000 nM

## O=C1c2cc(COc3cccc(F)c3)nn2CCN1c1ccc(F)cn1 [4w]
Human mGlu3 [7]
  EC50: 140 nM
